Values after ≈ are worked out from the molar mass of the structure shown.
What was measured:
Format in all cases: functional
Corynebacterium striatum = experiment: Antimicrobial activity against Corynebacterium striatum isolates by CLSI M45-A protocol based microdilution method
Listeria monocytogenes = experiment: Antimicrobial activity against Listeria monocytogenes isolates by CLSI M45-A protocol based microdilution method
Prescottella equi = experiment: Antimicrobial activity against Rhodococcus equi isolates by CLSI M45-A protocol based microdilution method
[1] = system: Corynebacterium pseudodiphtheriticum; experiment: Antimicrobial activity against Corynebacterium pseudodiphtheriticum isolates by CLSI M45-A protocol based microdilution method
[2] = system: Arcanobacterium haemolyticum; experiment: Antimicrobial activity against Arcanobacterium haemolyticum isolates by CLSI M45-A protocol based microdilution method
Corynebacterium jeikeium = experiment: Antimicrobial activity against Corynebacterium jeikeium isolates by CLSI M45-A protocol based microdilution method
[3] = system: Corynebacterium minutissimum; experiment: Antimicrobial activity against Corynebacterium minutissimum isolates by CLSI M45-A protocol based microdilution method
Corynebacterium xerosis = experiment: Antimicrobial activity against Corynebacterium xerosis isolates by CLSI M45-A protocol based microdilution method
[4] = system: Corynebacterium urealyticum; experiment: Antimicrobial activity against Corynebacterium urealyticum isolates by CLSI M45-A protocol based microdilution method
[5] = system: Corynebacterium amycolatum; experiment: Antimicrobial activity against Corynebacterium amycolatum isolates by CLSI M45-A protocol based microdilution method
[6] = Rhodococcus (subgen. Prescottella) equi

Compound	MIC50 (Corynebacterium striatum) [µg/mL]	MIC90 (Corynebacterium striatum) [µg/mL]	MIC50 (Listeria monocytogenes) [µg/mL]	MIC90 (Listeria monocytogenes) [µg/mL]	MIC50 (Prescottella equi; [6]) [µg/mL]	MIC90 (Prescottella equi; [6]) [µg/mL]	MIC50 [1] [µg/mL]	MIC90 [1] [µg/mL]	MIC50 [2] [µg/mL]	MIC90 [2] [µg/mL]	MIC50 (Corynebacterium jeikeium) [µg/mL]	MIC90 (Corynebacterium jeikeium) [µg/mL]	MIC50 [3] [µg/mL]	MIC50 (Corynebacterium xerosis) [µg/mL]	MIC50 [4] [µg/mL]	MIC90 [4] [µg/mL]	MIC50 [5] [µg/mL]	MIC90 [5] [µg/mL]	MIC [2] [µg/mL]	MIC (Corynebacterium jeikeium) [µg/mL]	also measured
CO/N=C(\C(=O)N[C@@H]1C(=O)N2C(C(=O)O)=C(COC(N)=O)CS[C@H]12)c1ccco1 [CEFUROXIME]	1 (≈ 2.36 µM)	2 (≈ 4.71 µM)	> 32	> 32	8 (≈ 18.9 µM)	16 (≈ 37.7 µM)	0.06 (≈ 0.141 µM)	0.125 (≈ 0.295 µM)	0.125 (≈ 0.295 µM)	0.25 (≈ 0.589 µM)	> 32	> 32	0.5 (≈ 1.18 µM)	2 (≈ 4.71 µM)	> 32	> 32	0.5 (≈ 1.18 µM)	2 (≈ 4.71 µM)			
CCC[C@@H]1C[C@@H](C(=O)N[C@@H]([C@H]2O[C@H](SC)[C@H](O)[C@@H](O)[C@H]2O)[C@H](C)Cl)N(C)C1 [CLINDAMYCIN]	> 16	> 16	1 (≈ 2.35 µM)	2 (≈ 4.71 µM)	2 (≈ 4.71 µM)	8 (≈ 18.8 µM)	> 16	> 16	≤ 0.015	≤ 0.015	> 16	> 16	> 16	> 16	> 16	> 16	> 16	> 16	≤ 0.015	> 16	
CN(C)c1cc(NC(=O)CNC(C)(C)C)c(O)c2c1C[C@H]1C[C@H]3[C@H](N(C)C)C(O)=C(C(N)=O)C(=O)[C@@]3(O)C(O)=C1C2=O [TIGECYCLINE]	0.5 (≈ 0.854 µM)	1 (≈ 1.71 µM)	0.06 (≈ 0.102 µM)	0.125 (≈ 0.213 µM)	0.25 (≈ 0.427 µM)	0.5 (≈ 0.854 µM)	≤ 0.015	0.03 (≈ 0.0512 µM)	≤ 0.015	≤ 0.015	≤ 0.015	0.03 (≈ 0.0512 µM)	≤ 0.015	0.125 (≈ 0.213 µM)	0.03 (≈ 0.0512 µM)	0.06 (≈ 0.102 µM)	0.125 (≈ 0.213 µM)	0.25 (≈ 0.427 µM)	≤ 0.015	≤ 0.015	MIC [1]: ≤ 0.015 µg/mL; MIC [3]: ≤ 0.003 µg/mL
CN(C)c1ccc(O)c2c1C[C@H]1C[C@H]3[C@H](N(C)C)C(O)=C(C(N)=O)C(=O)[C@@]3(O)C(O)=C1C2=O [MINOCYCLINE]	4 (≈ 8.74 µM)	8 (≈ 17.5 µM)	0.06 (≈ 0.131 µM)	0.06 (≈ 0.131 µM)	0.25 (≈ 0.546 µM)	0.25 (≈ 0.546 µM)	0.06 (≈ 0.131 µM)	0.06 (≈ 0.131 µM)	≤ 0.03	4 (≈ 8.74 µM)	0.06 (≈ 0.131 µM)	0.25 (≈ 0.546 µM)	≤ 0.03	0.25 (≈ 0.546 µM)	0.06 (≈ 0.131 µM)	0.5 (≈ 1.09 µM)	0.06 (≈ 0.131 µM)	0.25 (≈ 0.546 µM)	≤ 0.03	0.06 (≈ 0.131 µM)	MIC [3]: ≤ 0.03 µg/mL
CN[C@H](CC(C)C)C(=O)N[C@H]1C(=O)N[C@@H](CC(N)=O)C(=O)N[C@H]2C(=O)N[C@H]3C(=O)N[C@H](C(=O)N[C@H](C(=O)O)c4cc(O)cc(O)c4-c4cc3ccc4O)[C@H](O)c3ccc(c(Cl)c3)Oc3cc2cc(c3O[C@@H]2O[C@H](CO)[C@@H](O)[C@H](O)[C@H]2O[C@H]2C[C@](C)(N)[C@H](O)[C@H](C)O2)Oc2ccc(cc2Cl)[C@H]1O [VANCOMYCIN]	0.25 (≈ 0.173 µM)	0.5 (≈ 0.345 µM)	0.5 (≈ 0.345 µM)	1 (≈ 0.69 µM)	0.5 (≈ 0.345 µM)	0.5 (≈ 0.345 µM)	0.25 (≈ 0.173 µM)	0.25 (≈ 0.173 µM)	0.25 (≈ 0.173 µM)	0.5 (≈ 0.345 µM)	0.06 (≈ 0.0414 µM)	0.25 (≈ 0.173 µM)	0.25 (≈ 0.173 µM)	0.25 (≈ 0.173 µM)	0.25 (≈ 0.173 µM)	0.5 (≈ 0.345 µM)	0.25 (≈ 0.173 µM)	0.5 (≈ 0.345 µM)		0.06 (≈ 0.0414 µM)	
C[C@H]1COc2c(N3CCN(C)CC3)c(F)cc3c(=O)c(C(=O)O)cn1c23.C[C@H]1COc2c(N3CCN(C)CC3)c(F)cc3c(=O)c(C(=O)O)cn1c23.O [LEVOFLOXACIN]	> 32	> 32	0.5	1	1	2	0.25	4	0.5	0.5	4	> 32	0.06	32	> 32	> 32	> 32	> 32			
CN(C)[C@@H]1C(O)=C(C(N)=O)C(=O)[C@@]2(O)C(O)=C3C(=O)c4c(O)cccc4[C@@](C)(O)[C@H]3C[C@@H]12 [TETRACYCLINE]	16 (≈ 36 µM)	> 32	0.5 (≈ 1.13 µM)	0.5 (≈ 1.13 µM)	8 (≈ 18 µM)	8 (≈ 18 µM)	0.125 (≈ 0.281 µM)	0.25 (≈ 0.563 µM)	0.125 (≈ 0.281 µM)	16 (≈ 36 µM)	0.06 (≈ 0.135 µM)		0.25 (≈ 0.563 µM)	0.5 (≈ 1.13 µM)	0.25 (≈ 0.563 µM)	16 (≈ 36 µM)	0.125 (≈ 0.281 µM)	0.5 (≈ 1.13 µM)		0.06 (≈ 0.135 µM)	
GENTAMICIN	2	8	0.25	0.125			0.06	0.06	0.5	0.5	> 32	> 32	0.06	8	> 32	> 32	8	16			MIC50 (Prescottella equi): 0.5 µg/mL; MIC90 (Prescottella equi): 1 µg/mL; MIC [3]: < 0.03 µg/mL; MIC (Corynebacterium xerosis): < 0.03 µg/mL
C[C@H]1c2cccc(O)c2C(=O)C2=C(O)[C@]3(O)C(=O)C(C(N)=O)=C(O)[C@@H](N(C)C)[C@@H]3[C@@H](O)[C@@H]21.O [DOXYCYCLINE]	8	> 16	0.125	0.125	1	1	0.125	0.125	0.125	8	0.03	1	0.25	0.5	0.125	4	0.06	0.5			
